Assay results taken from PubChem BioAssay (NCI).
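At the GI50, growth is halved. Definition used: TGI = concentration required for complete inhibition of growth.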

Key:
Assay in all cases: inhibition of tumour cell growth, NCI panel, 384-well format; in the data active = GI50 below about 0.43 µM; inactive = the rest
[1] = system: PC-3 prostate
[2] = system: DU-145 prostate
[3] = system: HL-60(TB) leukemia
[4] = system: UACC-257 melanoma
[5] = system: SF-539 CNS
[6] = system: SNB-19 CNS
[7] = system: HS 578T breast
[8] = system: SN12C renal
[9] = system: SW-620 colon
[10] = system: SF-268 CNS
[11] = system: TK-10 renal
[12] = system: LOX IMVI melanoma
[13] = system: UACC-62 melanoma
[14] = system: NCI-H522 lung
[15] = system: CAKI-1 renal
[16] = system: MDA-MB-468 breast
[17] = system: KM12 colon
[18] = system: SK-OV-3 ovarian
[19] = system: NCI-H322M lung
[20] = system: MCF7 breast
[21] = system: HOP-62 NSCLC
[22] = system: MDA-MB-231 breast
[23] = system: HOP-92 NSCLC
[24] = system: SK-MEL-28 melanoma
[25] = system: HT29 colon
[26] = system: MALME-3M melanoma
[27] = system: OVCAR-8 ovarian
[28] = system: SNB-75 CNS
[29] = system: NCI/ADR-RES ovarian
[30] = system: NCI-H226 lung
[31] = system: BT-549 breast
[32] = system: ACHN renal
[33] = system: RXF 393 renal
[34] = system: SR leukemia
[35] = system: UO-31 renal
[36] = system: T-47D breast
[37] = system: SK-MEL-5 melanoma
[38] = system: U251 glioblastoma
[39] = system: A498 renal
[40] = system: MOLT-4 leukemia
[41] = system: HCC-2998 colon
[42] = system: COLO 205 colon
[43] = system: OVCAR-4 ovarian
[44] = system: OVCAR-5 ovarian
[45] = system: 786-0 renal
[46] = system: NCI-H23 lung
[47] = system: HCT-15 colon
[48] = system: A549 NSCLC
[49] = system: MDA-MB-435 melanoma
[50] = system: SF-295 CNS
[51] = system: IGROV1 ovarian
[52] = system: EKVX NSCLC
[53] = system: RPMI-8226 leukemia
[54] = system: OVCAR-3 ovarian
[55] = system: HCT-116 colon
[56] = system: NCI-H460 NSCLC
[57] = system: M14 melanoma

COc1nc(N)nc2c1ncn2[C@@H]1O[C@H](CO)[C@@H](O)[C@@H]1O
> 100 µM: TGI [1] | TGI [2] | TGI [3] | TGI [4] | TGI [5] | TGI [6] | TGI [7] | TGI [8] | TGI [9] | TGI [10] | TGI [11] | TGI [12] | TGI [13] | TGI [14] | TGI [15] | TGI [16] | TGI [17] | TGI [18] | TGI [19] | TGI [20] | TGI [21] | TGI [22] | TGI [23] | TGI [24] | TGI [25] | TGI [26] | TGI [27] | TGI [28] | TGI [29] | TGI [30] | TGI [31] | TGI [32] | TGI [33] | TGI [34] | TGI [35] | TGI [36] | TGI [37] | TGI [38] | TGI [39] | TGI [41] | TGI [42] | TGI [43] | TGI [44] | TGI [45] | TGI [46] | TGI [47] | TGI [48] | TGI [49] | TGI [50] | TGI [51] | TGI [52] | TGI [53] | TGI [54] | TGI [55] | TGI [56] | TGI [57]
inactive: GI50 [1] > 100 µM | GI50 [2] > 100 µM | GI50 [3] > 100 µM | GI50 [4] > 100 µM | GI50 [5] > 100 µM | GI50 [6] > 100 µM | GI50 [7] > 100 µM | GI50 [8] > 100 µM | GI50 [9] > 100 µM | GI50 [10] > 100 µM | GI50 [11] > 100 µM | GI50 [12] > 100 µM | GI50 [13] > 100 µM | GI50 [14] > 100 µM | GI50 [15] > 100 µM | GI50 [16] > 100 µM | GI50 [17] > 100 µM | GI50 [18] > 100 µM | GI50 [19] > 100 µM | GI50 [20] > 100 µM | GI50 [21] > 100 µM | GI50 [22] > 100 µM | GI50 [23] > 100 µM | GI50 [24] > 100 µM | GI50 [25] > 100 µM | GI50 [26] > 100 µM | GI50 [27] > 100 µM | GI50 [28] > 100 µM | GI50 [29] > 100 µM | GI50 [30] > 100 µM | GI50 [31] > 100 µM | GI50 [32] > 100 µM | GI50 [33] > 100 µM | GI50 [34] > 100 µM | GI50 [35] > 100 µM | GI50 [36] > 100 µM | GI50 [37] > 100 µM | GI50 [38] > 100 µM | GI50 [39] > 100 µM | GI50 [40] 1.31 µM | GI50 [41] > 100 µM | GI50 [42] > 100 µM | GI50 [43] > 100 µM | GI50 [44] > 100 µM | GI50 [45] > 100 µM | GI50 [46] > 100 µM | GI50 [47] > 100 µM | GI50 [48] > 100 µM | GI50 [49] > 100 µM | GI50 [50] > 100 µM | GI50 [51] > 100 µM | GI50 [52] > 100 µM | GI50 [53] > 100 µM | GI50 [54] > 100 µM | GI50 [55] > 100 µM | GI50 [56] > 100 µM | GI50 [57] > 100 µM
2.59 µM: TGI [40]
